Data: patent US9464326B2, “Total and phosphorylated IL-1 receptor-associated kinase-1 and IL-1 receptor-associated kinase-4 as a biomarker for cancer progression and chemotherapy resistance” (University of Maryland, Baltimore, priority 2012, dated 2016)

Tests used:
Assay type in all cases: cell-based, human
[1] = test system: Malme-3M melanoma cells; assay: Apoptosis by annexin-V/PI flow cytometry in Malme-3M
Procedure: FIG. 8. IRAK-1,-4 inhibition sensitized melanoma cells to vinblastine-mediated cytotoxicity. (A) A375 and Malme-3M melanoma cells were cultured with or without 2.5 μM of IRAK-1,-4 and in the presence varying concentrations of vinblastine, cisplatin or 5′ Fluorouracil. Forty-eight hours later apoptosis was evaluated by staining cells with annexin-V and propidium iodide and analyzed by flow cytometry. (B) A375 cells were transfected via electroporation with siRNA-IRAK-1,-4. IRAK-1 protein levels were examined by Western blotting. […], A375-psiRNA-hIRAK-1, A375-psiRNA-hIRAK-4, or cells expressing both psiRNA-hIRAK-1 and -4 were cultured in the presence of vinblastine (100 nmol/L) for 48 hours and apoptosis was examined by flow cytometry. (C) A375 melanoma cells were cultured in the presence of vehicle alone (DMSO) or various concentrations of IRAK-1,-4. Forty-eight hours later cell lysates were used to analyze the expression of levels of cleaved PARP or caspase-3 by Western blots. (D) A375 melanoma cells were cultured with or without 2.5 μM of IRAK.-1,-4 and in the presence or absence of vinblastine for 48 hrs. PARP and caspase-3 levels were determined by Western blot.
The TLR1-TLR2 ligand tripalmitoyl-S-(bis(palmitoyloxy)propyl)-Cys-Ser-(Lys)3-Lys (Pam3Cys) was purchased from Invivogen (San Diego, Calif., USA). […] In some experiments cells were treated with the indicated concentrations of IRAK.-1,-4 inhibitor and vinblastine, cisplatin, and 5-fluorouracil (Sigma-Aldrich, St. Louis, Mo.), and apoptosis was quantitated by flow cytometry after staining cells with FITC-labeled annexin-V (BD Pharmingen, San Jose, Calif.) and propidium iodide (PI; Sigma-Aldrich).

[2] = test system: CEM-C2; assay: Proliferation (3H-thymidine) of CEM-C2
Excerpt: (§1) CCRF-CEM, CEM/C1, CEM/C2, CEM-C7, Jurkat, Loucy, Molt-4, HSB-2, SUP-T1, Hut 78, HH, Hut 102, MO, and H9 T-leukemia and T-lymphoma cell lines were purchased from the American Type Culture Collection (Manassas, Va., USA). All of the cell lines were initially expanded and cryopreserved within one month of receipt. Cells were typically used for 6 months at which time a fresh vial of cryopreserved cells was used. Total T cells from healthy donors were isolated via negative selection followed by positive selection using a CD3+ selection kit (Invitrogen, Carlsbad, Calif.). T cells were isolated from patients with T-ALL bone marrow or peripheral blood samples containing more than 70% leukemia cells using a CD2+ isolation kit (STEMCELL Technologies, Vancouver, Canada). All tissues were collected under institutional IRB-approved protocols and all participants gave written informed assent/consent. For in vitro experiments, T-ALL cells were cultured in AIM-V medium supplemented with 20% human AB serum in the presence of recombinant human stem cell factor (50 ng/mL; Amgen, Thousand Oaks, Calif.), insulin (20 nM; Sigma-Aldrich, St Louis, Mo., USA) and IL-7 (50 ng/mL; R&D Systems, Minneapolis, Minn., USA). In other experiments, protein lysate was collected using the Full Moon Biosystems (Sunnyvale, Calif., USA) buffer prior to protein examination by western blot or protein array.
(§2) Cells were cultured in a 96-well plate (Corning Costar, Corning, N.Y., USA) with various concentrations of TLR ligands 1-9, starting at 10 μg/ml, in a final volume of 200 ul. TLR ligands were diluted 2-fold. Cell lines (25-40×10^3/well) were cultured for 54 hours, whereas fresh patient-derived T-ALL cells (200×10^3/well) were cultured for 30 hours prior to adding [^3H]-thymidine for 18 hours. After this time point, cells were harvested with a Packard Filter-Mate-96 cell harvester (Perkin Elmer, Waltham, Mass., USA) and counted on Packard Top Count-NXT (Perkin Elmer, Waltham, Mass., USA). Results were expressed as average counts per minute (cpm). In some experiments CCRF-CEM cells were pre-treated with TLR1-TLR2 ligand (Pam3CysK4; 2.5 ug/ml) for 48 hrs, washed, and then cultured in the presence of varying concentrations of FBS. Forty-eight hours later, proliferation (±SD) was determined by ^3H-thymidine incorporation. Alternatively, apoptosis was measured by flow cytometry after staining cells with Annexin-V (BD Pharmingen, San Diego, Calif., USA) and propidium iodide (Sigma). Cell number was counted under microscopy by staining cells with trypan blue. […]

[3] = test system: Primary T-cells Non-Act; assay: Proliferation (3H-thymidine) of non-activated primary T-cells; settings: 3H-thymidine uptake, 72 h
Excerpt: as §1, with “In other experiments, protein lysate was collected using the Full Moon Biosystems (Sunnyvale, Calif., USA) buffer prior to protein examination by western blot or protein array.” left out
as §2, with “TLR ligands were diluted 2-fold. Cell lines (25-40×10^3/well) were cultured for 54 hours, whereas fresh patient-derived T-ALL cells (200×10^3/well) were cultured for 30 hours prior to adding [^3H]-thymidine for 18 hours.” left out, “In some experiments CCRF-CEM cells were pre-treated with TLR1-TLR2 ligand (Pam3CysK4; 2.5 ug/ml) for 48 hrs, washed, and then cultured in the presence of varying concentrations of FBS.” left out

| Compound | apoptosis with 5′-fluorouracil ([1]; Malme3M, IRAK-1,-4 inhibitor with 0-100 nmol/L 5′-fluorouracil) | sensitivity to vinblastine (apoptosis) ([1]; Malme-3M, 2.5 μmol/L IRAK-1,-4 inhibitor with 0-200 nmol/L vinblastine, 48 h) | cisplatin's cytotoxicity ([1]; Malme-3M, IRAK-1,-4 inhibitor with 0-50 nmol/L cisplatin) | Proliferative effects of TLR ligands ([2]; 3H-thymidine uptake, 72 h) | TLR ligand concentration in parentheses below the symbol ([2]; no unit in table (μg/ml)) | Proliferative effects of TLR ligands [3] |
| --- | --- | --- | --- | --- | --- | --- |
| O=C(Nc1nc2ccccc2n1CCN1CCOCC1)c1cccc([N+](=O)[O-])c1 [IRAK-1,-4 inhibitor] | appeared to enhance apoptosis | increased sensitivity | did not increase |  |  |  |
| tripalmitoyl-S-(bis(palmitoyloxy)propyl)-Cys-Ser-(Lys)3-Lys [Pam3Cysk4] |  |  |  | + (enhanced proliferation by 25% or greater) | (2.5) | ∘ |
